From US8178658B2 (Dow AgroSciences, LLC, priority 2008, dated 2012)

Columns and labels:
[1] = system: beet armyworm (BAW; Spodoptera exigua: Lepidoptera); test: 96-well microtiter plate-based high throughput (HTS) diet bioassay on beet armyworm (BAW HTS); format: in vivo; conditions: BAW eggs, 12 μg test compound per well, mortality at 6 d post-treatment, mortality class
Procedure, shortened: (§1)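 Two diet-incorporation-style surface tests were run. Eggs infested treated diet (12 μg/well) in plates incubated dark at 29° C, with mortality taken on day 6 from six replicates. Separately, second-instar larvae fed on treated diet (50 μg/cm^2) at 25° C, 14:10 L:D, with six-day mortality averaged over eight wells.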

[2] = system: beet armyworm (BAW; Spodoptera exigua: Lepidoptera); test: 128-well diet tray assay on beet armyworm (BAW 50); format: in vivo; conditions: 128-well diet tray assay; 50 μg/cm^2 of test compound on diet; second instar BAW larvae; mortality class
Procedure, shortened: as §1

[3] = 96-well microtiter plate HTS diet assay

SMILES	BAW HTS ([1]; 96-well HTS diet bioassay)	BAW HTS [1, 3]	BAW 50 ug/cm2 [2]
COC1C(C)OC(ON=Cc2ccc(-c3csc(-c4ccc(OCC(F)(F)F)nc4)n3)cc2)C(OC)C1OC (stereo not drawn) [Compound 64]	A (the compound was tested and at least 50 percent mortality was observed)	A (the compound was tested and at least 50 percent mortality was observed)	A (the compound was tested and at least 50 percent mortality was observed)
COC1C(C)OC(ON=Cc2ccc(-c3csc(-c4ccc(C(F)(F)F)cc4)n3)cc2)C(OC)C1OC (stereo not drawn) [Compound 65]	A (the compound was tested and at least 50 percent mortality was observed)	A (the compound was tested and at least 50 percent mortality was observed)	A (the compound was tested and at least 50 percent mortality was observed)
COC1C(C)OC(ON=Cc2ccc(-c3csc(-c4ccc(C(F)(F)F)nc4)n3)cc2)C(OC)C1OC (stereo not drawn) [Compound 66]	A (the compound was tested and at least 50 percent mortality was observed)	A (the compound was tested and at least 50 percent mortality was observed)	A (the compound was tested and at least 50 percent mortality was observed)
COC1C(C)OC(ON=Cc2ccc(-c3ccn(-c4ccc(OC(F)(F)F)cc4)c3)cc2)C(OC)C1OC (stereo not drawn) [Compound 67]	B (either (1) the compound was tested and less than 50 percent mortality was observed or (2) the compound was not tested)	B (either (1) the compound was tested and less than 50 percent mortality was observed or (2) the compound was not tested)	A (the compound was tested and at least 50 percent mortality was observed)
CCOC1C(OC)C(C)OC(ON=Cc2ccc(C3=NC(c4ccc(OC(F)(F)F)cc4)CO3)cc2)C1OC (stereo not drawn) [Compound 68]	B (either (1) the compound was tested and less than 50 percent mortality was observed or (2) the compound was not tested)	B (either (1) the compound was tested and less than 50 percent mortality was observed or (2) the compound was not tested)	A (the compound was tested and at least 50 percent mortality was observed)
CO[C@@H]1[C@@H](OC)[C@H](C)O[C@@H](O/N=C/c2ccc(-n3cnc(-c4ccc(Cl)cn4)n3)cc2)[C@@H]1OC [Compound 69]	B (either (1) the compound was tested and less than 50 percent mortality was observed or (2) the compound was not tested)	B (either (1) the compound was tested and less than 50 percent mortality was observed or (2) the compound was not tested)	B (either (1) the compound was tested and less than 50 percent mortality was observed or (2) the compound was not tested)
CO[C@@H]1[C@@H](OC)[C@H](C)O[C@@H](O/N=C/c2ccc(-n3cnc(-c4ccccc4F)n3)cc2)[C@@H]1OC [Compound 70]	A (the compound was tested and at least 50 percent mortality was observed)	A (the compound was tested and at least 50 percent mortality was observed)	B (either (1) the compound was tested and less than 50 percent mortality was observed or (2) the compound was not tested)
CO[C@@H]1[C@@H](OC)[C@H](C)O[C@@H](O/N=C/c2ccc(-n3cnc(-c4cccnc4)n3)cc2)[C@@H]1OC [Compound 71]	A (the compound was tested and at least 50 percent mortality was observed)	A (the compound was tested and at least 50 percent mortality was observed)	B (either (1) the compound was tested and less than 50 percent mortality was observed or (2) the compound was not tested)
COC1C(C)OC(ON=Cc2ccc(-n3cnc(-c4ccc(C(F)(F)F)cc4)n3)cc2)C(OC)C1OC (stereo not drawn) [Compound 72]	A (the compound was tested and at least 50 percent mortality was observed)	A (the compound was tested and at least 50 percent mortality was observed)	A (the compound was tested and at least 50 percent mortality was observed)
CO[C@@H]1[C@@H](OC)[C@H](C)O[C@@H](O/N=C/c2ccc(C3=NN(c4ccccc4)CC3)cc2)[C@@H]1OC [Compound 73]	B (either (1) the compound was tested and less than 50 percent mortality was observed or (2) the compound was not tested)	B (either (1) the compound was tested and less than 50 percent mortality was observed or (2) the compound was not tested)	A (the compound was tested and at least 50 percent mortality was observed)
CCCOC1C(OC)C(C)OC(ON=Cc2ccc(-n3cnc(-c4ccc(C(F)(F)F)cc4)n3)cc2)C1OC (stereo not drawn) [Compound 74]	B (either (1) the compound was tested and less than 50 percent mortality was observed or (2) the compound was not tested)	B (either (1) the compound was tested and less than 50 percent mortality was observed or (2) the compound was not tested)	A (the compound was tested and at least 50 percent mortality was observed)
COC1C(C)OC(ON=Cc2ccc(-c3cn(-c4ccc(Cl)cc4)nn3)cc2)C(OC)C1OC (stereo not drawn) [Compound 75]	A (the compound was tested and at least 50 percent mortality was observed)	A (the compound was tested and at least 50 percent mortality was observed)	B (either (1) the compound was tested and less than 50 percent mortality was observed or (2) the compound was not tested)
COC1C(C)OC(ON=Cc2ccc(-c3cn(-c4ccc(C)cc4)nn3)cc2)C(OC)C1OC (stereo not drawn) [Compound 76]	B (either (1) the compound was tested and less than 50 percent mortality was observed or (2) the compound was not tested)	B (either (1) the compound was tested and less than 50 percent mortality was observed or (2) the compound was not tested)	B (either (1) the compound was tested and less than 50 percent mortality was observed or (2) the compound was not tested)
COc1ccc(-n2cc(-c3ccc(C=NOC4OC(C)C(OC)C(OC)C4OC)cc3)nn2)cc1 (stereo not drawn) [Compound 77]	B (either (1) the compound was tested and less than 50 percent mortality was observed or (2) the compound was not tested)	B (either (1) the compound was tested and less than 50 percent mortality was observed or (2) the compound was not tested)	B (either (1) the compound was tested and less than 50 percent mortality was observed or (2) the compound was not tested)
COC1C(C)OC(ON=Cc2ccc(-c3cn(-c4ccc(C(F)(F)F)cc4)nn3)cc2)C(OC)C1OC (stereo not drawn) [Compound 78]	B (either (1) the compound was tested and less than 50 percent mortality was observed or (2) the compound was not tested)	B (either (1) the compound was tested and less than 50 percent mortality was observed or (2) the compound was not tested)	A (the compound was tested and at least 50 percent mortality was observed)
COC1C(C)OC(ON=Cc2ccc(-c3cn(-c4ccc(OC(F)(F)F)cc4)nn3)cc2)C(OC)C1OC (stereo not drawn) [Compound 79]	B (either (1) the compound was tested and less than 50 percent mortality was observed or (2) the compound was not tested)	B (either (1) the compound was tested and less than 50 percent mortality was observed or (2) the compound was not tested)	A (the compound was tested and at least 50 percent mortality was observed)
CO[C@@H]1[C@@H](OC)[C@H](C)O[C@@H](O/N=C/c2ccc(-c3ncn(-c4ccc(C(F)(F)F)cc4)n3)cc2)[C@@H]1OC [Compound 80]	A (the compound was tested and at least 50 percent mortality was observed)	A (the compound was tested and at least 50 percent mortality was observed)	A (the compound was tested and at least 50 percent mortality was observed)
CCCCc1ccc(-n2cnc(-c3ccc(C=NOC4OC(C)C(OC)C(OC)C4OC)cc3)n2)cc1 (stereo not drawn) [Compound 81]	A (the compound was tested and at least 50 percent mortality was observed)	A (the compound was tested and at least 50 percent mortality was observed)	A (the compound was tested and at least 50 percent mortality was observed)
COC1C(C)OC(ON=Cc2ccc(-c3ncn(-c4ccc(OC(F)(F)F)cc4)n3)cc2)C(OC)C1OC (stereo not drawn) [Compound 82]	B (either (1) the compound was tested and less than 50 percent mortality was observed or (2) the compound was not tested)	B (either (1) the compound was tested and less than 50 percent mortality was observed or (2) the compound was not tested)	A (the compound was tested and at least 50 percent mortality was observed)
COC1C(C)OC(ON=Cc2ccc(-c3ncn(-c4ccc(C(C)C)cc4)n3)cc2)C(OC)C1OC (stereo not drawn) [Compound 83]	B (either (1) the compound was tested and less than 50 percent mortality was observed or (2) the compound was not tested)	B (either (1) the compound was tested and less than 50 percent mortality was observed or (2) the compound was not tested)	A (the compound was tested and at least 50 percent mortality was observed)
COC1C(C)OC(ON=Cc2ccc(-c3ncn(-c4ccc(Cl)cc4)n3)cc2)C(OC)C1OC (stereo not drawn) [Compound 84]	B (either (1) the compound was tested and less than 50 percent mortality was observed or (2) the compound was not tested)	B (either (1) the compound was tested and less than 50 percent mortality was observed or (2) the compound was not tested)	A (the compound was tested and at least 50 percent mortality was observed)
COc1ccc(-n2cnc(-c3ccc(C=NOC4OC(C)C(OC)C(OC)C4OC)cc3)n2)cc1 (stereo not drawn) [Compound 85]	B (either (1) the compound was tested and less than 50 percent mortality was observed or (2) the compound was not tested)	B (either (1) the compound was tested and less than 50 percent mortality was observed or (2) the compound was not tested)	A (the compound was tested and at least 50 percent mortality was observed)
